The record followed here is US7217808B2, “RFRP-3 and DNA thereof” (Takeda Pharmaceutical Company, Ltd., priority 2001, dated 2007).

One assay concerns the target T1, rOT7T022L (Rattus norvegicus, UniProt Q9EP86).
T1 construct: expressed in transfected cells; host or cells: CHO dhfr- cells (clone CHO-rOT7T022L)
The experiment in a line: Cytosensor acidification rate of rOT7T022L receptor-expressing CHO cells. The format is cell-based. The conditions noted are these: peptide exposure 7 min 2 sec. The text has this:
The rOT7T022L receptor-expressing CHO cells obtained in (2) in Reference Example 7 were sown in cytosensor capsules at 2.7×10^5 cells/capsule. After overnight culture, the capsules were mounted in the work station of a cytosensor. The assay medium (0.1% bovine serum albumin-containing low buffered RPMI1640 medium) positioned in the flow route of the cytosensor was supplied to the cells under pump ON (80 sec)/pump OFF (40 sec) cycles. In each cycle, the change ratio of extracellular pH for 30 sec starting from 8 sec after the stop of the pump was calculated as acidification rate. The time course of acidification rate was monitored. When this rate began to show stable values, the flow route was shifted to thereby expose individual peptide to the cells for 7 min and 2 sec. The values of acidification rate in individual wells were normalized taking the values for the 3 cycles immediately before the peptide exposure as 100%.

The target in another assay is T2, Human OT7T022 receptor (Homo sapiens, UniProt Q9GZQ6).
T2 construct: expressed in transfected cells; host or cells: CHO cells
T2 sequence (Q9GZQ6 whole entry): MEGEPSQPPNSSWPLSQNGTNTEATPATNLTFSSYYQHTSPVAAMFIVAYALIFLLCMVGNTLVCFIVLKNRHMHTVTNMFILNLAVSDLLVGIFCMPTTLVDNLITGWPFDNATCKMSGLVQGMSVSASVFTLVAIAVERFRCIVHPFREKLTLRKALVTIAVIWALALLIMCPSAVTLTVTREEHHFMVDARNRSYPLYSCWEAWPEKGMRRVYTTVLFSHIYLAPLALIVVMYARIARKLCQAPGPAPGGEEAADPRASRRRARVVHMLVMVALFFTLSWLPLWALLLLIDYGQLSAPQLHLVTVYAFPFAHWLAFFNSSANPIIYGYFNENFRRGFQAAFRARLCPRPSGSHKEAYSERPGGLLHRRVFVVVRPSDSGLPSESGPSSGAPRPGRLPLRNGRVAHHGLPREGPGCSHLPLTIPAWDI
Kind of assay: Effect of pertussis toxin upon activation of human OT7T022 receptor (cAMP production inhibition). The conditions noted are these: 0.1 μM peptide, 1 μM forskolin, 100 ng/ml pertussis toxin overnight. It is filed as cell-based. The method, then:
The human OT7T022 receptor-expressing CHO cells obtained in Example A8 were plated in 24-well plates at 1×10^5 cells/well and cultured overnight. Then, the medium was changed for 100 ng/ml pertussis toxin (Sigma)-containing medium or a control medium, and the cells were cultured overnight. The cells were washed with Hanks' buffer (HBSS) supplemented with 0.05% BSA and 0.2 mM IBMX and then pre-incubated in the same buffer at 37° C., for 30 min. Subsequently, the buffer was exchanged for HBSS supplemented with 0.05% BSA and 0.2 mM IBMX, HBSS supplemented with 1 μM forskolin alone, or HBSS supplemented with 1 μM forskolin and a peptide at various concentrations, and the cells were incubated at 37° C. for 30 min. After the incubation, the buffer was exchanged for HBSS supplemented with 0.05% BSA and 0.2 mM IBMX (black column), this buffer supplemented with 1 μM forskolin alone (white column), or this buffer supplemented with 1 μM forskolin and 0.1 μM RFRP-1-12 (peptide having the amino acid sequence which is from position 81 (Met) to position 92 (Phe) of SEQ ID NO: 1) (column with slant lines), and the cells were incubated at 37° C. for 30 min. After the incubation, intracellular cAMP was extracted and determined for each well according to the protocol attached to the cAMP EIA Kit (Amersham). […]

The next assay has as its system adult male Wistar rats. Kind of assay: Plasma pituitary hormone levels after administration into the third ventricle. The format is in vivo, rat. As to conditions: 10 mnol into the third ventricle; for plasma prolactin levels: vs PBS control. The protocol:
Effects of the administration of the peptide represented by SEQ ID NO: 39 into the third ventricle upon pituitary hormone levels were examined. Briefly, adult male Wistar rats (body weight 290–350 g at the time of surgery) were anesthetized by intraperitoneal administration of 50 mg/kg pentobarbital and fixed in a stereotaxic apparatus for rat brain. The incisor bar was set 3.3 mm below the interaural line. The skull surface was exposed, and a hole was drilled in the skull with a dental drill in order to implant a guide cannula Further, an anchor screw was embedded at one place around the hole. A stainless guide cannula AG-12 (inside dia. 0.4 mm, outside dia. 0.5 mm; Eicom) was inserted so that its tip is located above the third ventricle. The stereotaxic coordinates were set as follows according to the atlas of Paxinos and Watson (1998): AP: +7.2 mm (from the interaural line), L: 0.0 mm, H: +2.0 mm (from the interaural line). The guide cannula was fixed onto the skull with instant glue, dental cement and the anchor screw. A stainless dummy cannula AD-12 (outside dia. 0.35 mm; Eicom) was inserted into the guide cannula and fixed with a cap nut (Eicom). After the surgery, the rats were bred separately in individual cages for more than one week to allow recovery.
The day before the experiment, the rats that had undergone the above surgery were anesthetized by intraperitoneal administration of 50 mg/kg pentobarbital and fixed on anatomical pads in face-up position. Then, a catheter (SP35; Natsume Seisakusho) was inserted into the right jugular vein. The next day, 400 μl of blood was taken from the jugular vein. In order to prevent blood coagulation, 20 μl of physiological saline containing 200 units/ml heparin was put in advance in the injection syringe. The cap nut and the dummy cannula installed on the rat skull were removed. Instead of them, a stainless microinjection cannula AMI13 (inside dia. 0.17 mm, outside dia. 0.35 mm; Eicom) connected with a Teflon tube (length 50 cm, inside dia. 0.1 mm, outside dia. 0.4 mm; Eicom) was inserted into the guide cannula. The length of the microinjection cannula was adjusted in advance so that 1 mm of its tip is exposed from the guide cannula. One end of the Teflon tube was connected with a microsyringe pump. Then, a total 10 μl of PBS alone or PBS containing the peptide represented by SEQ ID NO: 39 was injected into the third ventricle at a flow rate of 5 μl/min. One minute after the completion of the injection, the microinjection cannula was removed, and a dummy cannula was fixed again with a cap nut. A 400 μl blood sample was taken from the cannula inserted into the jugular vein immediately before the start of the intraventricular administration and at 10, 20, 30, 40 and 60 min after the start of the intraventricular administration. The collected blood was centrifuged at 5,000 rpm for 10 min in a high-speed refrigerated microcentrifuge (MR-150; Tomy Seiko) to recover the supernatant (plasma). The prolactin levels in the plasma were measured by radioimmunoassay.
The results are expressed as mean±S.E.M. Whether there is a significant difference between the group to which PBS containing the peptide represented by SEQ ID NO: 39 was administered and the control group to which PBS alone was administered was tested by Student's t-test. Differences were assessed with two-sided tests, and significance level 5% or below was judged statistically significant.

For a further assay, the target named is T3, human-type OT7T022 (Homo sapiens, UniProt Q9GZQ6).
T3 construct: expressed in transfected cells; host or cells: CHO cells
T3 sequence (Q9GZQ6 whole entry): as above
Kind of assay: Binding inhibition of 125I-Tyr-hRFRP-3(8) to membrane fraction from human-type OT7T022-expressing CHO cells. As to conditions: room temperature 1.5 hr. The protocol:
With this buffer, the membrane fraction from human-type OT7T022-expressing CHO cells was diluted to give a concentration of 1 μg/25 μl. […] Sample solutions prepared, NSB and the assay buffer were dispensed into polypropylene 96-well plates in quadruplicate as total 50 μl/well. […] Twenty-five microliter of the membrane fraction solution from human-type OT7T022-expressing CHO cells was added thereto, agitated with a plate mixer and incubated at room temperature for 1.5 hr. Using a cell harvester for 96-well plates, the contents of each well were adsorbed onto a filter unit (GF/C, treated with polyethylene imine) pre-moisturized with washing buffer (50 mM Tris-HCl, pH 7.5). After washing 5 times with the washing buffer, the adsorbate was dried thoroughly. The lower part of the filter unit was sealed. Then, 50 μl of liquid scintillator was added to each well and the upper part of the filter unit was sealed. Radioactivity was measured with a Top Count (Packard), and data were analyzed in triplicate.

T1 sequence (Q9EP86 whole entry): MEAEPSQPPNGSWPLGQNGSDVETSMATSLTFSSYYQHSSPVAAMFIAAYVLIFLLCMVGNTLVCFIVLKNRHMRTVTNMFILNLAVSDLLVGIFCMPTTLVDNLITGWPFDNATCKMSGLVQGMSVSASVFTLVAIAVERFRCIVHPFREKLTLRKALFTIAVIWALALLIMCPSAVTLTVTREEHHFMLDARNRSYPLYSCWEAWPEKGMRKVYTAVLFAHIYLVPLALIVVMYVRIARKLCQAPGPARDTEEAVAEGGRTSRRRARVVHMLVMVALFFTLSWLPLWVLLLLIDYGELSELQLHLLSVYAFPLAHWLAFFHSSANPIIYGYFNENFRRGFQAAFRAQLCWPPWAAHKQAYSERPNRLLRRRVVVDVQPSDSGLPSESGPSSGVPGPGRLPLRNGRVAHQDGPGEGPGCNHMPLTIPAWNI

As for H-MPHSFANLPLRF-NH2, the “reactivity of rOT7T022L receptor-expressing CHO cells (acidification rate)” value on rOT7T022L was “reactive”. Moreover, at Human OT7T022 receptor, the “cAMP production inhibitory activity in cells treated with pertussis toxin” value is reported as “disappeared”. For the same compound, in the assay on adult male Wistar rats, the “ACTH level in the plasma” value is recorded as “did not show significant changes”, the “GH level in the plasma” value is listed as “did not show significant changes”, the “LH level in the plasma” value was “did not show significant changes” and the “TSH level in the plasma” value is “did not show significant changes”. In the assay with adult male Wistar rats (60 min after administration), the plasma prolactin levels result is recorded as “significant difference was observed”. Besides, in the assay with adult male Wistar rats (at 20, 30 and 40 min after administration), the plasma prolactin levels entry is “increased significantly”. Further, the plasma prolactin levels entry with adult male Wistar rats (from 10 min after administration) is recorded as “increasing tendency”.
As to “H-ATANLPLRSGRNMEVSLVRRVPNLPQRF-NH2 [hRFRP-3 (28)]”, at human-type OT7T022, the IC50 (commonly the concentration that gives 50% inhibition) turned out to be 1.6 nM.
Consider `CC(C)C[C@H](NC(=O)[C@H](CC(N)=O)NC(=O)[C@@H]1CCCN1C(=O)[C@@H](N)C(C)C)C(=O)N1CCC[C@H]1C(=O)N[C@@H](CCC(N)=O)C(=O)N[C@@H](CCCNC(=N)N)C(=O)N[C@@H](Cc1ccccc1)C(N)=O`, for which the “reactivity of rOT7T022L receptor-expressing CHO cells (acidification rate)” value at rOT7T022L is listed as “reactive”.
